Measurements published in patent US20080233562A1, “Method of Estimating Antitumor Effect of Histone Deacetylase Inhibitor” (Astellas Pharma Inc., priority 2003, published 2008).

Legend:
[1] = tested on: human prostate cancer PC-3; assay: Antitumor effect on human prostate cancer PC-3 tumor fragment implanted s.c. in nude mice; assay type: in vivo
Procedure: A necessary amount of FK228 was weighed and a solvent (10% HCO-60/saline) was added. The mixture was sonicated to allow for dissolution. A positive control substance Paclitaxel was dissolved in Cremophor EL/ethanol (1:1) solution to 24 mg/mL prior to the testing, and preserved in a refrigerator. When in use, it was diluted with a 9-fold amount of physiological saline to 2.4 mg/mL (solvent component: 5% Cremophor EL-5% ethanol-90% saline).
(§3) For antitumor test of the pharmaceutical agent, BALB/cANnNCrj-nu/nu mice (male, 6-week-old) were purchased from Charles River Japan and, after acclimation for not less than one week, used for the test. The mice were reared under an SPF environment and allowed a free access to water and feed.
A grown solid tumor was subcultured for not less than 3 generations and used for the test.
(§4) A solid tumor subcultured in a nude mouse was subcutaneously implanted in the right back of a mouse as an about 3 mm square tumor tissue fragment. […]
(§5) The administration was started on the day of grouping (Day 0). […] The amount of liquid for each administration was calculated (0.1 mL/10 g body weight) based on the body weight measured on the administration day.
(§6) The tumor size (longer diameter, shorter diameter) and body weight were measured twice a week from Day 0.
(§7) The level of tumor growth was evaluated based on the tumor growth rate (Relative Tumor Volume). […]

[2] = tested on: human kidney cancer ACHN; assay: Antitumor effect on human kidney cancer ACHN tumor fragment implanted s.c. in nude mice; assay type: in vivo
Procedure: A necessary amount of FK228 was weighed and a solvent (10% HCO-60/saline) was added. The mixture was sonicated to allow for dissolution.
as §3
Cultured human kidney cancer cell line 1 (ACHN: available from ATCC) and human culture prostate cancer cell line 1 (PC-3: available from ATCC) were subcutaneously implanted at 2-3×10^7 cells in a nude mouse. A grown solid tumor was subcultured for not less than 3 generations and used for the test.
as §4, §5, §6, §7

[3] = tested on: human kidney cancer A498; assay: Antitumor effect on human kidney cancer A498 tumor fragment implanted s.c. in nude mice; assay type: in vivo; conditions: 3.2 mg/kg i.v.
From the text: (§1) A solid tumor subcultured in a nude mouse was subcutaneously implanted in the right back of a mouse as an about 3 mm square tumor tissue fragment. After the tumor implantation, when the tumor volume (½×longer diameter×shorter diameter^2) reached 100-300 mm^3, the mice were grouped into 6 mice per group to level the tumor size.
human kidney cancer A498; obtained from ATCC (tumor fragment 3 mm×3 mm×3 mm/mouse implantation site s.c.)
(§2) By the method shown in Example 1, 3 mm square tumor fragments (human prostate cancer PC-3, human stomach cancer SC-6, human kidney cancer ACHN and human kidney cancer A498) were subcutaneously implanted in nude mice, and when the tumor volume (long diameter 9 mm, short diameter 8 mm) reached about 100-300 mm^3, FK228 (3.2 mg/kg) was intravenously administered. The tumor growth suppressing rates then were 98%, 84%, 20% and 29%, respectively.

[4] = Maximum tolerated dose, intravenous administration to nude mice; conditions: mouse, in vivo, i.v.
Procedure: The administration was started on the day of grouping (Day 0). FK228 was intravenously administered to an FK228 administration group 3 times every 4 days (q4d×3) (3.2 and 1.8 mg/kg). Paclitaxel (24 mg/kg) was intravenously administered for 5 consecutive days (qd×5) to a positive control substance Paclitaxel administration group. Only a solvent (10% HCO-60/saline) was administered (q4d×3) to a control group. The amount of liquid for each administration was calculated (0.1 mL/10 g body weight) based on the body weight measured on the administration day. Note that 3.2 mg/kg/day (q4d×3) of FK228 and 24 mg/kg/day (qd×5) of Paclitaxel were the maximum tolerated doses (MTD) thereof.

[5] = tested on: human stomach cancer SC-6; assay: Antitumor effect on human stomach cancer SC-6 tumor fragment implanted s.c. in nude mice; assay type: in vivo; conditions: SC-6 s.c. in nude mice, 3.2 mg/kg i.v.
From the text: as §1
human gastric cancer SC-6; obtained from Central Institute for Experimental Animals (tumor fragment 3 mm×3 mm×3 mm/mouse implantation site s.c.)
as §2

| Compound | antitumor action (tumor growth rate, Relative Tumor Volume) ([1]; PC-3 in nude mice, FK228 3.2 mg/kg i.v. q4d×3, FIG. 1(a)) | tumor growth suppressing rate ([1]; PC-3 s.c. in nude mice, 3.2 mg/kg i.v.) [%] | antitumor action (tumor growth rate, Relative Tumor Volume) ([2]; ACHN in nude mice, FK228 i.v. q4d×3, FIG. 1(b)) | tumor growth suppressing rate ([2]; ACHN s.c. in nude mice, 3.2 mg/kg i.v.) [%] | tumor growth suppressing rate [3] [%] | MTD ([4]; q4d×3, nude mice) [mg/kg/day] | tumor growth suppressing rate [5] [%] | MTD at 5 days ([4]; 24 mg/kg, qd×5, nude mice) [mg/kg/day] |
| --- | --- | --- | --- | --- | --- | --- | --- | --- |
| C/C=C1\NC(=O)[C@H]2CSSCC/C=C/[C@H](CC(=O)N[C@H](C(C)C)C(=O)N2)OC(=O)[C@H](C(C)C)NC1=O [FK228] | strong antitumor action | 98 | did not show an antitumor action | 20 | 29 | 3.2 | 84 |  |
| CC(=O)O[C@H]1C(=O)[C@@]2(C)[C@H]([C@H](OC(=O)c3ccccc3)[C@]3(O)C[C@H](OC(=O)[C@H](O)[C@@H](NC(=O)c4ccccc4)c4ccccc4)C(C)=C1C3(C)C)[C@]1(OC(C)=O)CO[C@@H]1C[C@@H]2O [Paclitaxel, reference compound] |  |  |  |  |  |  |  | 24 |
